# Measured values from patent US8314113B2, “Substituted dihydroquinazolines II” (Aicuris GmbH & Co. KG, priority 2003, dated 2012).
# pEC50: −log10 of the molar value. Structures can show the parent of a compound that is named as a salt. Where two headings read alike, the source gives them in different places.
# Assays:
# [1] = tested on: HCMV; assay: Anti-HCMV cytopathogenicity test (CPE inhibition); type: cell-based, human cytomegalovirus; details: for pEC50: read-out: HCMV EC50; for SI HCMV (selectivity index = CC50 (NHDF)/EC50 (HCMV)): ratio CC50 (NHDF)/EC50 (HCMV)
# Method: Anti-HCMV (Anti-Human Cytomegalovirus) Cytopathogenicity Tests The test compounds are employed as 50 millimolar (mM) solutions in dimethyl sulphoxide (DMSO). Ganciclovir, Foscarnet and Cidofovir are used as reference compounds. After addition of in each case 2 μl of the 50, 5, 0.5 and 0.05 mM DMSO stock solutions to 98 μl portions of cell culture medium in row […] for duplicate determinations, 1:2 dilutions are carried out with 50 μl portions of medium up to row 11 of the 96-well plate. The wells in rows 1 and 12 each contain 50 μl of medium. Then 150 μl portions of a suspension of 1×10^4 cells (human prepuce fibroblasts [NHDF]) are pipetted into each of the wells (row 1=cell control) and, in rows 2-12, a mixture of HCMV-infected and uninfected NHDF cells (M.O.I.=0.001-0.002), i.e. 1-2 infected cells-per 1000 uninfected cells. Row 12 (without substance) serves as virus control. The final test concentrations are 250-0.0005 μM. The plates are incubated at 37° C./5% CO2 for 6 days, i.e. until all the cells are infected in the virus controls (100% cytopathogenic effect [CPE]). The wells are then fixed and stained by adding a mixture of formalin and Giemsa's dye (30 minutes), washed with double-distilled water and dried in a drying cabinet at 50° C. The plates are then assessed visually using an overhead microscope (Plaque Multiplier from Technomara). The following data can be acquired from the test plates: EC50 (HCMV)=substance concentration in μM which inhibits the CPE (cytopathic effect) by 50% compared with the untreated virus control;
# [2] = Cytotoxicity on NHDF cells in the anti-HCMV cytopathogenicity test; type: cell-based; details: NHDF cells (human prepuce fibroblasts), visual assessment, concentration at which no visible cytostatic effects are evident
# Method: Anti-HCMV (Anti-Human Cytomegalovirus) Cytopathogenicity Tests The test compounds are employed as 50 millimolar (mM) solutions in dimethyl sulphoxide (DMSO). Ganciclovir, Foscarnet and Cidofovir are used as reference compounds. After addition of in each case 2 μl of the 50, 5, 0.5 and 0.05 mM DMSO stock solutions to 98 μl portions of cell culture medium in row […] for duplicate determinations, 1:2 dilutions are carried out with 50 μl portions of medium up to row 11 of the 96-well plate. The wells in rows 1 and 12 each contain 50 μl of medium. Then 150 μl portions of a suspension of 1×10^4 cells (human prepuce fibroblasts [NHDF]) are pipetted into each of the wells (row 1=cell control) and, in rows 2-12, a mixture of HCMV-infected and uninfected NHDF cells (M.O.I.=0.001-0.002), i.e. 1-2 infected cells-per 1000 uninfected cells. Row 12 (without substance) serves as virus control. The final test concentrations are 250-0.0005 μM. The plates are incubated at 37° C./5% CO2 for 6 days, i.e. until all the cells are infected in the virus controls (100% cytopathogenic effect [CPE]). The wells are then fixed and stained by adding a mixture of formalin and Giemsa's dye (30 minutes), washed with double-distilled water and dried in a drying cabinet at 50° C. The plates are then assessed visually using an overhead microscope (Plaque Multiplier from Technomara). The following data can be acquired from the test plates: CC50 (NHDF)=substance concentration in μM at which no visible cytostatic effects on the cells are evident by comparison with the untreated cell control;
# [3] = Human betaherpesvirus 5, NHDF, 144 h
# [4] = Human betaherpesvirus 5, 144 h, HCMV-infected NHDF cells, M.O.I. 0.001-0.002, 6 days, 50% inhibition of CPE
SMILES,"pEC50 [1, 3]",SI HCMV (selectivity index = CC50 (NHDF)/EC50 (HCMV)) [1],CC50 at 6 days [2],"pEC50 [1, 4]"
"COc1ccc(C(F)(F)F)cc1N1C(C2CCN(c3ccc(F)c(C)c3)CC2)=Nc2c(F)cccc2C1CC(=O)O (racemic) [Example 1, {8-Fluoro-2-[1-(4-fluoro-3-methylphenyl)piperidin-4-yl]-3-[2-methoxy-5-(trifluoromethyl)phenyl]-3,4-dihydroquinazolin-4-yl}acetic acid hydrochloride]",7.52,800,24 µM,
"COc1ccc(C(F)(F)F)cc1N1C(C2CCN(c3ccc(F)c(C)c3)CC2)=Nc2c(F)cccc2C1CC(=O)O (stereo not drawn) [Example 2, {8-Fluoro-2-[1-(4-fluoro-3-methylphenyl)piperidin-4-yl]-3-[2-methoxy-5-(trifluoromethyl)phenyl]-3,4-dihydroquinazolin-4-yl}acetic acid hydrochloride]",7.40,775,31 µM,
"COc1ccc(C(F)(F)F)cc1N1C(C2CCN(c3cccc(C)c3)CC2)=Nc2c(F)cccc2C1CC(=O)O (stereo not drawn) [Example 3, {8-Fluoro-3-[2-methoxy-5-(trifluoromethyl)phenyl]-2-[1-(3-methylphenyl)piperidin-4-yl]-3,4dihydroquinazolin-4-yl}acetic acid]",,310,31 µM,7.00
"COc1ccc(C(F)(F)F)cc1N1C(C2CCN(c3ccc(F)cc3)CC2)=Nc2c(F)cccc2C1CC(=O)O (stereo not drawn) [Example 4, {8-Fluoro-2-[1-(4-fluorophenyl)piperidin-4-yl]-3-[2-methoxy-5-(trifluoromethyl)-phenyl]-3,4-dihydroquinazolin-4-yl}acetic acid]",,237,36 µM,6.82
